Assay results published in US12551480B2, “Treatment using EYP001” (ENYO PHARMA, priority 2019, dated 2026).

How the values were obtained:
[1] = clinical trials of obeticholic acid (PBC, NASH); cited from earlier work
[2] = Study EYP001-202 Phase 2a in NASH patients: liver fat content (LFC) change from baseline to Week 12 by MRI-PDFF; assay type: in vivo, human
Procedure: FIG. 2: Absolute Liver Fat Content Change (%) from baseline assessed by MRI-PDFF in NASH patients treated during 12 weeks with EYP001 100 mg BID (n=4) or EYP001 200 mg QD (n=3) or Placebo (n=5). Values expressed as means; error bar is SE. #p=0.07 vs baseline. The ------- line corresponds to a 5% clinical meaningful reduction. Analysis of covariance (ANCOVA) model with change from baseline as the dependent variable and baseline Liver Fat Content as a covariate and treatment (pooled EYP001 and Placebo BID) and stratification factors—statin use and T2DM status at screening as factors.
(§1) EYP001a is an investigational agonist of the FXR, a key regulator of bile, lipid, and glucose metabolism. […] Study EYP001-202 is a Phase 2a, 2-part study conducted to determine the efficacy and safety profiles of different doses and dosing regimens of EYP001 (100 mg twice daily [BID] and 200 mg once daily [QD]) versus placebo on LFC (liver fat content) from baseline to Week 12 in patients with NASH. An interim analysis on 24 patients enrolled in Part A Safety Run-in Cohort focused on safety, tolerance and key efficacy results.
The primary efficacy endpoint of LFC reduction was met.

[3] = human, in vivo
NASH rodent model = assay type: in vivo
[4] = Study EYP001-202 Phase 2a in NASH patients: pruritus intensity on Visual Analog Scale, safety and tolerance; assay type: in vivo, human
Procedure: Values are AUC least square means (error bars=SE). AUC=area under the concentration-time curve; BID=twice daily; QD=once daily. * p<0.05 versus Placebo.
as §1
VAS (Visual Analog Score) results were the followings: 100 mg BID group (mean change from baseline ranged from 3.34 on Day 7 to 6.84 on Day 21), and the 200 mg QD group (mean change from baseline ranged from 3.03 on Day 28 to 3.47 on Day 56).
The efficacy was shown with a significant, clinically relevant LFC reduction from baseline. However, tolerance was affected due to pruritus events causing premature terminations. The BID regimen less well tolerated compared to QD regimen. In addition, a higher efficacy is associated to the QD regimen in comparison to the BID.

HBV (plasma HBsAg) = assay: Plasma HBsAg change from baseline in patients with chronic Hepatitis B infection, 4 weeks; assay type: in vivo, human; conditions: 400 mg QD vs 200 mg BID, chronic Hepatitis B patients (FIG. 3)
Procedure: FIG. 3: Plasma HBsAg (Log 10 IU/mL) change from baseline in patients with chronic Hepatitis B infection. Patients received during 4 weeks either Placebo (n=8), EYP001 200 mg BID (n=8) or EYP001 400 mg QD (n=8). Values expressed as mean; error bar is SD. * p<0.05 vs baseline.
Patients chronically infected with HBV underwent a 4-week treatment as either daily oral FXR agonist EYP001 monotherapy or placebo or entecavir (ETV) in Part A of the study (n=48) or in combination with IFN (Part B, n=23, weekly sub-cutaneous injections of pegylated IFNα2a, PEG-IFN). Overall 15 (30%) patients developed pruritus related to EYP001, a well-known TEAE with FXR agonist, the mechanism of which however is poorly understood.

Compound | pruritus rates [1] | LFC reduction, regimens compared ([2]; 200 mg QD group compared to 100 mg BID group, 12 weeks (FIG. 2)) | LFC reduction, difference from placebo ([2]; EYP001 groups pooled (100 mg BID and 200 mg QD), baseline to Week 12, p=0.04, absolute LFC change (%) by MRI-PDFF) | frequency of pruritus with QD dosing compared to BID regimens [3] | any of above Pruritus related MEDRA (% of patients) ([3]; 4 weeks) [%] | n = any of above Pruritus related MEDRA (number of patients) ([3]; 4 weeks) | none of above (% of patients without pruritus) ([3]; 4 weeks) [%] | none of above (number of patients without pruritus) ([3]; 4 weeks) | patients who developed pruritus related to EYP001 (%) ([3]; 4 weeks) | patients who developed pruritus related to EYP001 (number) ([3]; 4 weeks) | effect on liver steatosis, inflammation, apoptosis and fibrosis (NASH rodent model) | tolerance in VAS analysis (AUC over 12 weeks) ([4]; NASH patients, 200 mg QD vs 100 mg BID (FIG. 1)) | serious AEs ([4]; male and female F2-F3 NASH patients, 100 mg BID and 200 mg QD) | plasma HBsAg change from baseline, efficacy of regimens compared (HBV (plasma HBsAg))
CC[C@H]1[C@@H](O)[C@@H]2[C@H](CC[C@]3(C)[C@@H]([C@H](C)CCC(=O)O)CC[C@@H]23)[C@@]2(C)CC[C@@H](O)C[C@@H]12 [obeticholic acid] | up to 51% | – | – | – | – | – | – | – | – | – | – | – | – | –
O=C(O)c1cc2c(Cl)c(N3CCN(S(=O)(=O)c4c(Cl)cccc4Cl)CC3)ccc2o1 [EYP001] | – | more pronounced effect | 8.62 | up to four times less frequent pruritus | 27 | 9 | 73 | 24 | 30 | 15 | reduced liver steatosis, inflammation, apoptosis, and fibrosis | better tolerance | no serious AEs | better efficacy
